Results reported in patent US20140271930A1, “NONINVASIVE METHOD FOR MEASURING METABOLITES FOR SKIN HEALTH” (priority 2013, published 2014).
Marks after values point to notes of the source that are not given here. Peptide text beside a SMILES is read from it.

System: scalp of dandruff and non-dandruff subjects
Experiment: Metabolite expression profiling (LC/MS/MS, GC/MS/MS) of scalp D-Squame tape strip extracts: non-dandruff, dandruff baseline, dandruff after 3 weeks anti-dandruff shampoo
Type: in vivo, human
Conditions: for reduction / decrease of metabolite level vs dandruff baseline: after three weeks ZPT shampoo; for decrease of metabolite level vs dandruff baseline: after three weeks selenium sulfide shampoo; for Fold Change Wk 3 Sel vs Dandruff Baseline / Fold Change Wk 3 ZPT vs Dandruff Baseline / Fold Change Wk 3 ZPT vs Non-Dan Baseline / Fold Change Wk 3 Sel vs Non-Dan Baseline: metabolite level in scalp tape strips; for Fold Change Wk 3 Sel vs Dandruff Baseline / Fold Change Wk 3 ZPT vs Dandruff Baseline: standardized to soluble protein; for Fold Change Wk 3 Sel vs Dandruff Baseline: dandruff subjects after 3 weeks 1% selenium sulfide shampoo vs own baseline; for Fold Change Wk 3 ZPT vs Dandruff Baseline: dandruff subjects after 3 weeks 1% zinc pyrithione shampoo vs own baseline; for Fold Change Wk 3 ZPT vs Non-Dan Baseline: dandruff subjects after 3 weeks 1% ZPT shampoo vs non-dandruff subjects; for Fold Change Wk 3 Sel vs Non-Dan Baseline: dandruff subjects after 3 weeks 1% selenium sulfide shampoo vs non-dandruff subjects
Excerpt: In an embodiment, the use of an adhesive device can be used to achieve such sampling. In preparation for such a sampling study for a dandruff sampling, at a baseline visit, a qualified screening grader will complete adherent scalp flaking score (ASFS) grading for each subject and the highest flaking octant will be identified for tape strip sampling. The highest flaking octant will be sampled at baseline and at various time points during and after treatment with product. Tape strips samples will be collected from each subject at each time point (e.g., baseline and week 3).
The tape strip sampling procedure is repeated additional times, as needed, at the same site placing each D-Squame® tape disc on top of the prior sampled area. The D-Squame® tapes after sample collection are placed into the appropriately labeled wells in a labeled plate.
Following the sampling, an extraction and quantitation procedure is conducted. In an embodiment of the present invention, quantitation of small molecules from extracts of D-Squame® Tape Samples can be conducted via analysis by either LC/MS/MS or GC/MS/MS. In this embodiment of the present invention, the sample extraction in preparation for Metabolite expression profiling technology was performed.
The D-Squame® tape sample plates are removed from −80° C. freezer where they are stored following sample collection, and placed on dry ice. The tape strips are inserted into pre-labeled polypropylene collection tubes, adhesive side facing inward. Extraction buffer containing methanol and water is added to each collection tube and then extracted on ice using sonication for 15 min. If necessary, additional tapes are placed in the collection tube containing the extract solution and the extraction process is repeated as a means of concentrating the sample. Each extract solution is isolated from the tape strip and an aliquot of each sample is placed into a pre-labeled polypropylene collection tubes and frozen at −80° C. for metabolite expression profiling analysis. A separate aliquot is specified for soluble protein analysis using a BCA™ Protein Assay Kit. For this analysis, the aliquot consisting of methanol and water is taken to dryness under a gentle stream of nitrogen. The sample is resuspended in an appropriate aqueous buffer (e.g., PBS/SDS (1× PBS+0.2% SDS) and analyzed for soluble protein.
The extracts are analyzed by GC/MS/MS and LC/MS/MS in positive and negative ion mode. Chromatographic separation followed by full scan mass spectra and MS/MS spectra is carried out to record and quantify all detectable ions present in the samples. Metabolites with known chemical structure can be identified by matching the ions' chromatographic retention index and mass spectra fragmentation signatures with reference library entries created from authentic standard metabolites under the identical analytical procedure as the experimental samples. Welch's Two Sample t-tests and matched-pair t-tests are used to analyze the data. […] The statistical analyses are performed on natural log-transformed data to reduce the effect of any potential outliers in the data. Welch's Two Sample t-test comparisons are made between the means of each biochemical from the various groups listed at the top of the tables and are calculated using either or both of the statistical analysis software programs: Array Studio (Omicsoft, Inc) or “R” from the Free Software Foundation, Inc.
Subjects are evaluated by a qualified grader to establish their scalp status. Dandruff subjects are identified by their level of visible flaking as assessed by a qualified grader. Non-dandruff healthy scalp subjects are evaluated at baseline to establish normalized levels of each biomarker. In this study, there are 60 non-dandruff subjects that are evaluated at baseline. […] They are evaluated at baseline, and after 3 weeks of product usage.

[1] = dandruff subjects after 3 weeks treatment with Sel shampoo, metabolite level in scalp tape strip extract
[2] = dandruff subjects after 3 weeks treatment with ZPT shampoo, metabolite level in scalp tape strip extract
[3] = relative metabolite level in scalp tape strips, dandruff subjects after 3 weeks 1% ZPT shampoo
[4] = relative metabolite level in scalp tape strips, dandruff subjects after 3 weeks 1% selenium sulfide shampoo

Compound | Mean Values WEEK 3 TRT Sel [1] | Mean Values WEEK 3 TRT ZPT [2] | reduction / decrease of metabolite level vs dandruff baseline | decrease of metabolite level vs dandruff baseline | Fold Change Wk 3 Sel vs Dandruff Baseline | Fold Change Wk 3 Sel vs Dandruff Baseline (listed as 13-HODE+9-HODE) | Fold Change Wk 3 ZPT vs Dandruff Baseline | Fold Change Wk 3 ZPT vs Dandruff Baseline (listed as 13-HODE+9-HODE) | Fold Change Wk 3 ZPT vs Non-Dan Baseline | Fold Change Wk 3 Sel vs Non-Dan Baseline | Mean Values WEEK 3 TRT ZPT [3] | Mean Values WEEK 3 TRT Sel [4]
CCCCCCCCCCCCCCCCC(=O)OCC(O)CO (stereo not drawn) | 0.638 | 1.1274 |  |  |  |  |  |  |  |  |  | 
13- and 9-hydroxyoctadecadienoic acid [13-HODE + 9-HODE] | 0.4182 | 0.4413 | 74% | 66% | 0.34* fold | 0.34 fold | 0.26*** fold | 0.26 fold | 0.5*** fold | 0.48* fold |  | 
CCCCCCCCCCCCCCC(O)C(=O)O (stereo not drawn) [2-hydroxypalmitate] | 0.6696 | 0.8231 |  |  | 0.57* fold |  | 1.04 fold |  | 0.6* fold | 0.49* fold |  | 
O=C(O)C(O)Cc1ccc(O)cc1 (stereo not drawn) [3-(4-hydroxyphenyl)lactate] | 0.7878 | 0.7551 |  |  | 0.44* fold |  | 0.7*** fold |  | 0.8 fold | 0.84 fold |  | 
CC(C)CCC[C@@H](C)[C@H]1CC[C@H]2[C@@H]3[C@H](O)C=C4C[C@@H](O)CC[C@]4(C)[C@H]3CC[C@]12C [7-alpha-hydroxycholesterol] | 0.9662 | 0.959 |  |  |  |  |  |  |  |  |  | 
CCCCCCC=CCCCCCCCCC(=O)O [10-heptadecenoate (17:1n7), 10-heptadecenoate] | 0.4139 | 0.7411 |  |  | 0.33* fold |  | 0.67*** fold |  | 0.52*** fold | 0.29* fold |  | 
CCCCCCCCC=CCCCCCCCCC(=O)O [10-nonadecenoate (19:1n9), 10-nonadecenoate] | 0.1901 | 0.4088 |  |  | 0.14* fold |  | 0.31* fold |  | 0.38* fold | 0.17* fold |  | 
CC(C)CCCCCCCCCCCCCC(=O)O [15-methylpalmitate] | 0.3813 | 0.485 |  |  | 0.31* fold |  | 0.4* fold |  | 0.35* fold | 0.27* fold |  | 
CC(C)CCCCCCCCCCCCCCCC(=O)O [17-methylstearate] | 0.273 | 0.4446 |  |  | 0.21* fold |  | 0.36* fold |  | 0.35* fold | 0.22* fold |  | 
OC[C@@H](O)C(O)[C@H](O)CO [Arabitol] |  |  |  |  | 0.73 fold |  | 0.61* fold |  | 0.65 fold | 1.07 fold |  | 
O=C(O)c1ccccc1 [Benzoate] |  |  |  |  | 7.26**** fold |  | 2.02**** fold |  | 2.16**** fold | 4.26**** fold |  | 
NCCO [Ethanolamine] | 1.7285 | 0.976 |  |  | 1.63**** fold |  | 1.08 fold |  | 2.53**** fold | 4.49** fold |  | 
O=C(O)/C=C/C(=O)O [Fumarate] |  |  |  |  | 0.37*** fold |  | 0.53 fold |  | 0.68 fold | 0.76 fold |  | 
NCCCC(=O)O [Gamma-aminobutyrate (GABA), Gamma-aminobutyrate] |  |  |  |  |  |  |  |  |  |  | 0.1343 | 0.1888
N[C@@H](CCC(=O)N[C@@H](CCC(=O)O)C(=O)O)C(=O)O [Gamma-glutamylglutamate] |  |  |  |  | 0.95 fold |  | 1.89** fold |  | 2.09** fold | 1.11 fold | 1.7984 | 0.9586
N[C@@H](CCC(=O)O)C(=O)O [Glutamate] |  |  |  |  |  |  |  |  |  |  | 0.7627 | 1.0169
NCC(=O)O [Glycine] |  |  |  |  |  |  |  |  |  |  | 0.7968 | 0.8645
CC(C)CCC[C@@H](C)[C@H]1CC[C@H]2C3=CC[C@H]4C[C@@H](O)CC[C@]4(C)[C@H]3CC[C@]12C [Lathosterol] | 0.9469 | 0.7479 |  |  |  |  |  |  |  |  |  | 
CC(C)C[C@H](N)C(=O)N[C@@H](CCC(=O)O)C(=O)O [Leucylglutamate] (H-Leu-Glu-OH) | 0.9581 | 0.874 |  |  | 0.81* fold |  | 1.13 fold |  | 0.93 fold | 1.02 fold |  | 
CCCC/C=C\CCCCCCCC(=O)O [Myristoleate (14:1n5), Myristoleate] | 0.6261 | 0.8341 |  |  | 0.53*** fold |  | 0.8*** fold |  | 0.6* fold | 0.45* fold |  | 
Cn1cc(C(N)=O)ccc1=O [N1-Methyl-2-pyridone-5-carboxamide] | 0.8271 | 1.1768 |  |  | 0.89 fold |  | 1.57 fold |  | 0.76 fold | 0.54* fold |  | 
CCCCCC/C=C\CCCCCCCC(=O)O [Palmitoleate (16:1n7), Palmitoleate] | 0.6347 | 0.8507 |  |  | 0.55* fold |  | 0.83* fold |  | 0.58* fold | 0.43* fold |  | 
CCCCCCCCCCCCCCCCCC(=O)NCCO [Stearoyl ethanolamide] | 2.6645 | 2.3466 |  |  | 5.03** fold |  | 2.94 fold |  | 3.88** fold | 4.41** fold |  | 
NC(N)=O [Urea] | 2.5539 | 2.6469 |  |  | 2.81**** fold |  | 4.13 fold |  | 3.75 fold | 3.62** fold |  | 
O=c1[nH]c(=O)c2[nH]cnc2[nH]1 [Xanthine] |  |  | 84% | 85% |  |  |  |  |  |  |  | 
